Reference: PubChem BioAssay (NCI)
Several values for one entry are separate records, joined by “and”; a condition that tells them apart may be missing. Identical values can stand only once.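 Where inhibition never reached the appropriate level, the endpoint shown equals the highest concentration tested. Otherwise, values were interpolated linearly from a five-concentration, 48-hour dose response in 96-well plates. Here, GI50 denotes the concentration required for 50% inhibition of growth. TGI: concentration producing complete growth inhibition.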

Tests used:
Assay in all cases: NCI-60 cell line screen, 48 h
COLO 205 colon = test system: COLO 205 colon
DU-145 prostate = test system: DU-145 prostate
HCT-15 colon = test system: HCT-15 colon
HL-60(TB) leukemia = test system: HL-60(TB) leukemia
MALME-3M melanoma = test system: MALME-3M melanoma
PC-3 prostate = test system: PC-3 prostate
SF-295 CNS = test system: SF-295 CNS
TK-10 renal = test system: TK-10 renal

SMILES | GI50 (COLO 205 colon) [µM] | TGI (COLO 205 colon) [µM] | GI50 (DU-145 prostate) [µM] | TGI (DU-145 prostate) [µM] | GI50 (HCT-15 colon) | TGI (HCT-15 colon) | GI50 (HL-60(TB) leukemia) | TGI (HL-60(TB) leukemia) [µM] | GI50 (MALME-3M melanoma) [µM] | TGI (MALME-3M melanoma) [µM] | GI50 (PC-3 prostate) [µM] | TGI (PC-3 prostate) [µM] | GI50 (SF-295 CNS) | TGI (SF-295 CNS) [µM] | GI50 (TK-10 renal) [µM] | TGI (TK-10 renal) [µM]
Cn1cc(-c2csc(-c3cn(CCN4CCOCC4)c4ccc(F)cc34)n2)c2cccnc21 | 2.08 | 5.23 | 3.12 | > 100 | 2.29 µM | 8.09 µM | 2.52 µM | 6.87 | 2.88 | 12.3 | 2.14 | 6.64 | 2.35 µM | 7.15 | 3.28 | 18.8
Nc1c(C(=O)Nc2cccc3ccccc23)sc2nc3c(cc12)CCCC3 | 2.45 | 9.53 | 2.62 | > 100 | 0.565 µM | > 100 µM | 0.233 µM | 0.802 |  |  | 1.8 | > 100 | 0.621 µM | > 100 | 14.6 | > 100
Clc1ccccc1-c1nc2ccccc2[nH]1 | > 100 | > 100 | > 100 | > 100 | > 100 µM | > 100 µM | > 100 µM | > 100 | > 100 | > 100 | > 100 | > 100 | 43.3 µM | > 100 | > 100 | > 100
COC(=O)Nc1nc2c(OC)c(OC)c(OC)cc2[nH]1 | 7.33 | 64.7 | 32 | > 100 | 5.71 µM | > 100 µM | 6.33 µM | > 89.5 | 16.4 | > 100 | 24.2 | > 100 | 27.9 µM | > 100 | 66.6 | > 100
CC(=O)OCCC/C(=C\c1ccc2ccccc2c1)[N+](=O)[O-] | 1.57 | 3.43 | 1.65 | 3.4 | 1.61 µM | 3.42 µM | > 100 µM | > 100 | 1.91 | 4.9 | 1.93 | 4.24 | 1.96 µM | 4.55 | 1.58 | 3.4
OC(COc1ccc(Cl)cc1Cl)CN1CCCC1 (stereo not drawn) |  | > 100 |  | > 100 |  | > 100 µM |  | > 100 |  | > 100 |  | > 100 |  | > 100 |  | > 100
CC(C)(C)c1ccc(C(=O)N/N=C/c2ccc(O)cc2O)cc1 | 0.377 | 6.76 | 0.564 | 14 | 0.325 µM | 2.12 µM | 0.411 µM | 8.27 | 0.478 | 5.19 | 0.706 | 21.8 | 0.327 µM | 3.22 | 0.73 | > 53.5
COc1cc2c(cc1OCCCCC(=O)Nc1ccc(-c3nc4ccccc4s3)cc1)N=C[C@@H]1CCCN1C2=O | 1.69 | 3.07 |  |  | 2.85 µM | 9.81 µM | 1.77 µM | 6.31 |  |  | 2.04 | 5.93 | 0.556 µM | 3.37 | 3.2 | 7.97
Cc1cc[c-]cc1.Fc1c[c-]c(-c2ccccn2)c(F)c1.N#CCC[PH+](CCC#N)c1ccccc1.[Pt+2] |  |  | 2.46 | 6.22 | 2.89 µM | 11.6 µM | 2.37 µM | 18.1 |  |  | 3.01 | 20.7 | 3.91 µM | 29.8 | 4.45 | 36
O=S(=O)(NC(=S)Nc1ccccc1)c1ccc(N2N=C3c4ccccc4CC3C2c2ccc(Cl)cc2)cc1 (stereo not drawn) | 21.6 | 44.3 | 24.9 | 51.4 | 22.4 µM | 54.8 µM | 21 µM | 46.2 |  |  | 13.8 | 28.1 | 35.5 µM | > 100 | 30.2 | 99.4
C/C1=C\CC[C@@](C)(O)[C@H]2C[C@H](CC/C(C)=C/CC1)C1(CC1)C(=O)O2 | 32.5 | > 100 | 16.6 | 31.2 | 17.6 µM | 36.8 µM |  |  |  |  | 14.8 | 32.4 | 19.3 µM | 46.7 | 32.9 | > 100
CC(=O)OC1CCC2(C)C(CCC3C2CCC2(C)C(C4=CC(=O)OC4)CCC32)C1 (stereo not drawn) | 12.8 | > 100 | 14.7 | 40.3 | 16.2 µM | > 100 µM | 7.9 µM | 30.7 | 4.23 | 23.1 | 5.07 | 25.7 |  |  | 5.53 | 22.9
O=C(O)c1cn(C2CC2)c2cc(N3CCN(S(=O)(=O)c4ccc(Cl)c(Cl)c4)CC3)c(F)cc2c1=O | 3.5 | 11.9 | 4.31 | > 100 | 3.3 µM | > 100 µM | 2.04 µM | 5.17 | 2.3 | 5.24 |  |  |  |  | 4.31 | > 100
COc1ccc(S(=O)(=O)O)cc1NS(=O)(=O)c1ccc(C)cc1 |  | > 100 |  | > 100 |  | > 100 µM |  | > 100 |  |  |  | > 100 |  | > 100 |  | > 100
O=C1Nc2ccccc2C12CC(c1ccccc1)=NN2 (stereo not drawn) | 4.62 | 25.9 | 9.63 | 51.1 | 4.17 µM | > 100 µM | 3.29 µM | 15.3 | 3.89 | > 100 | 3.89 | > 100 | 4.84 µM | > 100 |  | 
Cc1cc2nc3ccc(N=Nc4ccc(N(C)C)cc4)cc3n(-c3ccccc3)c-2cc1=N | 0.00343 | 0.0216 | 0.0208 | 0.123 | 0.0273 µM and 0.177 µM | 0.259 µM and 1.31 µM | 0.00334 µM and 0.0119 µM |  |  |  | 0.0143 | 0.183 | 0.0154 µM and 0.0314 µM |  |  | 
COc1cc(C/C=C/c2ccccc2)c(OC)cc1O |  | 45.5 |  | 37.3 |  | 37.2 µM |  | 59.9 |  | 42.4 |  | 67.2 |  |  |  | 38.6
Cc1cc(N(CCCNc2ccnc3cc(Cl)ccc23)Cc2cccs2)nc(Cl)n1 | 2.24 | 7.8 | 7.9 | 23.1 | 2.45 µM | 12.8 µM |  |  | 3.06 | 13.5 | 3.32 | 22.9 |  |  | 5.96 | 20.9
